61 compounds from patent US20100022527A1, “BIPHENYL SUBSTITUTED SPIROTETRONIC ACIDS AND THEIR USE FOR THE TREATMENT OF RETROVIRAL DISEASES” (priority 2006, published 2010) can be followed below.

Structures are written as SMILES.

This assay addresses T1, HIV-1 protease wild type protein (Human immunodeficiency virus type 1 group M subtype B, UniProt P04585).
T1 construct: HIV-1 protease wild type protein; purchased AscoProt Biotech, Prague, Czech Republic
The experiment in a line: Biochemical protease assay. The procedure: For the determination of their in vitro activity on HIV proteases the test substances are dissolved in DMSO and serially diluted. In each case 0.5 μl of substance dilution, 20 μl of 0.2-1 nM HIV-1 protease wild type or mutant protein (e.g., multiresistant isolate “35513”: L10I, I15V, L19I, K20R, E35D, M36I, R41K, I54V, L63P, H69K, A71V, T74P, I84V, L89M, L90M, 193L, AscoProt Biotech, Prague, Czech Republic) in buffer 1 (50 mM sodium acetate pH 4.9, 0.02% BSA, 0.1 mM EDTA, 0.5 mM DTT) and 20 μl of 8 μM substrate (M1865 from Bachem, Bubendorf, Switzerland; Matayoshi et al., Science 1990, 247, 954-8) in buffer 1 are added successively to a 384 well microtiter plate (Greiner, Frickenhausen, Germany), incubated for 60-180 minutes at 32° C. and the fluorescence is measured (e.g., Tecan Safire, 340 nm extinction, 520 nm emission). IC50 values are determined by graphical plotting the substance concentration against the percentage inhibition.
Usually IC50 stands for the midpoint of a concentration-inhibition curve. Take `CCOC1CCCCC12OC(=O)C(c1cc(Cl)c(-c3cccc(S(C)(=O)=O)c3)cc1C)=C2O` (single isomer, unassigned) [Example 75]: the IC50 was not above 100 nM. The value for `CCOC1CCCCC12OC(=O)C(c1cc(Cl)c(-c3ccccc3)cc1C)=C2O` (single isomer, unassigned) [Example 77] was not above 100 nM. The value for `CCOC1CCCCC12OC(=O)C(c1cc(C)c(-c3ccc(Cl)cc3)cc1Cl)=C2O` (single isomer, unassigned) [Example 82] was not above 100 nM; that for `Cc1cc(-c2cccc(S(C)(=O)=O)c2)c(Cl)cc1C1=C(O)C2(CCCN(CC(=O)NCc3ccccc3)C2)OC1=O` (single isomer, unassigned) [Example 164] was not above 100 nM; that for `Cc1cc(-c2ccc(Cl)cc2)c(C)cc1C1=C(O)C2(CCC(C)C(C)C2)OC1=O` (stereo not shown) [Example 9] was not above 100 nM.

`Cc1cc(-c2ccc(Cl)cc2)c(C)cc1C1=C(O)C2(CCCCCC2)OC1=O` [Example 10]: the IC50 is not above 100 nM. The figure for `Cc1cc(-c2ccc(Cl)cc2)c(C)cc1C1=C(O)C2(CCC(=O)CC2)OC1=O` [Example 11] is not above 100 nM; for `Cc1cc(-c2ccc(Cl)cc2)c(C)cc1C1=C(O)C2(CCC3CCCC3C2)OC1=O` (stereo not shown) [Example 12] it is not above 100 nM; for `Cc1cc(-c2ccc(Cl)cc2)c(C)cc1C1=C(O)C2(CCCCC2OC(C)C)OC1=O` (stereo not shown) [Example 13] it is not above 100 nM. The figure for `CCOC1CCCCC12OC(=O)C(c1cc(C)c(-c3ccc(Cl)cc3)cc1C)=C2O` (stereo not shown) [Example 14] is not above 100 nM.

Compound `COC1CCCCC12OC(=O)C(c1cc(C)c(-c3ccc(Cl)cc3)cc1C)=C2O` (stereo not shown) [Example 15] had an IC50 not above 100 nM.

Compound `Cc1cc(-c2ccccc2)c(Cl)cc1C1=C(O)C2(CCCCC2)OC1=O` [Example 17, 3-(2-Chloro-5-methylbiphenyl-4-yl)-4-hydroxy-1-oxaspiro[4.5]dec-3-en-2-one] showed an IC50 not above 100 nM. The value for `Cc1ccc(-c2cc(C)c(C3=C(O)C4(CCCCC4)OC3=O)cc2Cl)cc1` [Example 22] was not above 100 nM; that for `COc1ccc(-c2cc(C)c(C3=C(O)C4(CCCCC4)OC3=O)cc2Cl)cc1` [Example 23] was not above 100 nM.

In the case of `Cc1cc(-c2ccc3c(c2)OCO3)c(Cl)cc1C1=C(O)C2(CCCCC2)OC1=O` [Example 24], the IC50 is not above 100 nM. With `Cc1cc(-c2cccc(CO)c2)c(Cl)cc1C1=C(O)C2(CCCCC2)OC1=O` [Example 26], the IC50 is not above 100 nM.

`CC(=O)c1cccc(-c2cc(C)c(C3=C(O)C4(CCCCC4)OC3=O)cc2Cl)c1` [Example 27]: the IC50 is not above 100 nM. The value for `Cc1cc(-c2ccc(C(=O)O)cc2)c(Cl)cc1C1=C(O)C2(CCCCC2)OC1=O` [Example 30] was not above 100 nM; that for `Cc1cc(-c2cccc(Cl)c2)c(Cl)cc1C1=C(O)C2(CCCCC2)OC1=O` [Example 31] was not above 100 nM.

`COc1cccc(-c2cc(C)c(C3=C(O)C4(CCCCC4)OC3=O)cc2Cl)c1` [Example 32] registered an IC50 not above 100 nM. The figure for `Cc1cc(-c2cccc(C)c2C)c(Cl)cc1C1=C(O)C2(CCCCC2)OC1=O` [Example 33] is not above 100 nM. The value for `Cc1cc(-c2cc(C)c(C3=C(O)C4(CCCCC4)OC3=O)cc2Cl)ccc1F` [Example 34] was not above 100 nM.

As to `Cc1cc(-c2ccc(OC(F)(F)F)cc2)c(Cl)cc1C1=C(O)C2(CCCCC2)OC1=O` [Example 35], the IC50 was not above 100 nM. The figure for `Cc1cc(-c2cccc(S(C)(=O)=O)c2)c(Cl)cc1C1=C(O)C2(CCCCC2)OC1=O` [Example 36] is not above 100 nM; for `Cc1cc(-c2cccc(C#N)c2)c(Cl)cc1C1=C(O)C2(CCCCC2)OC1=O` [Example 37] it is not above 100 nM. The figure for `Cc1cc(-c2cccc(OC(F)(F)F)c2)c(Cl)cc1C1=C(O)C2(CCCCC2)OC1=O` [Example 38] is not above 100 nM; for `Cc1cc(-c2cccc([N+](=O)[O-])c2)c(Cl)cc1C1=C(O)C2(CCCCC2)OC1=O` [Example 40] it is not above 100 nM. The compound `Cc1cc(-c2cccc(C(N)=O)c2)c(Cl)cc1C1=C(O)C2(CCCCC2)OC1=O` [Example 41] gave a half-maximal inhibitory concentration (IC50) not above 100 nM. The figure for `CCS(=O)(=O)c1ccc(-c2cc(C)c(C3=C(O)C4(CCCCC4)OC3=O)cc2Cl)cc1` [Example 42] is not above 100 nM; for `Cc1cc(-c2ccc(NC(=O)OC(C)(C)C)cc2)c(Cl)cc1C1=C(O)C2(CCCCC2)OC1=O` [Example 43] it is not above 100 nM; for `Cc1cc(-c2ccc(NC(=O)C(C)(C)C)cc2)c(Cl)cc1C1=C(O)C2(CCCCC2)OC1=O` [Example 44] it is not above 100 nM. On to `Cc1cc(-c2ccc([N+](=O)[O-])cc2)c(Cl)cc1C1=C(O)C2(CCCCC2)OC1=O` [Example 47, 3-(2-chloro-5-methyl-4′-nitrobiphenyl-4-yl)-4-hydroxy-1-oxaspiro[4.5]dec-3-en-2-one], for which the half-inhibitory concentration (IC50) was not above 100 nM. The figure for `Cc1cc(-c2ccc(F)c([N+](=O)[O-])c2)c(Cl)cc1C1=C(O)C2(CCCCC2)OC1=O` [Example 48] is not above 100 nM; for `Cc1cc(-c2ccc(C(=O)NC3CC3)cc2)c(Cl)cc1C1=C(O)C2(CCCCC2)OC1=O` [Example 49] it is not above 100 nM; for `Cc1cc(-c2cccc(C(=O)NC3CC3)c2)c(Cl)cc1C1=C(O)C2(CCCCC2)OC1=O` [Example 50] it is not above 100 nM. The figure for `Cc1cc(-c2cccc(C(=O)NCCC#N)c2)c(Cl)cc1C1=C(O)C2(CCCCC2)OC1=O` [Example 51] is not above 100 nM. The figure for `Cc1cc(-c2ccc(C(=O)NCC(=O)O)cc2)c(Cl)cc1C1=C(O)C2(CCCCC2)OC1=O` [Example 52] is not above 100 nM. `COC1CCC2(CC1)OC(=O)C(c1cc(Cl)c(-c3ccccc3)cc1C)=C2O` (stereo not shown) [Example 53] showed an IC50 not above 100 nM. Compound `COC1CCC2(CC1)OC(=O)C(c1cc(Cl)c(-c3ccc(F)cc3)cc1C)=C2O` (stereo not shown) [Example 54] registered an IC50 not above 100 nM.

Regarding `CCOc1ccccc1-c1cc(C)c(C2=C(O)C3(CCC(OC)CC3)OC2=O)cc1Cl` (stereo not shown) [Example 55], the IC50 was not above 100 nM. The value for `COC1CCC2(CC1)OC(=O)C(c1cc(C)c(-c3cccc(C#N)c3)cc1C)=C2O` (stereo not shown) [Example 56] was not above 100 nM; that for `COC1CCC2(CC1)OC(=O)C(c1cc(C)c(-c3cccc(C(F)(F)F)c3)cc1C)=C2O` (stereo not shown) [Example 57] was not above 100 nM. The figure for `COC1CCC2(CC1)OC(=O)C(c1cc(C)c(-c3ccc(Cl)cc3)cc1C)=C2O` (stereo not shown) [Example 58] is not above 100 nM; for `Cc1cc(-c2ccccc2)ccc1C1=C(O)C2(CCCCC2)OC1=O` [Example 59] it is not above 100 nM. The value for `COc1cccc(-c2ccc(C3=C(O)C4(CCCCC4)OC3=O)c(C)c2)c1` [Example 60] was not above 100 nM; that for `Cc1cc(-c2ccc(Cl)cc2)ccc1C1=C(O)C2(CCCCC2)OC1=O` [Example 61] was not above 100 nM; that for `COc1ccc(-c2ccc(C3=C(O)C4(CCCCC4)OC3=O)c(C)c2)cc1` [Example 62] was not above 100 nM. `COc1cccc(-c2cc(Cl)c(C3=C(O)C4(CCCCC4)OC3=O)cc2C)c1` [Example 69]: the 50% inhibitory concentration (IC50) was not above 100 nM. Compound `Cc1cc(C2=C(O)C3(CCCCC3)OC2=O)c(Cl)cc1-c1ccc(Cl)cc1` [Example 70] displayed an IC50 not above 100 nM. On to `Cc1cc(C2=C(O)C3(CCCCC3)OC2=O)c(Cl)cc1-c1cccc(S(C)(=O)=O)c1` [Example 71], for which the IC50 was not above 100 nM. The figure for `Cc1cc(-c2cccc(S(C)(=O)=O)c2)c(Cl)cc1C1=C(O)C2(CCN(C(=O)OCc3ccccc3)CC2)OC1=O` [Example 72, benzyl 3-[2-chloro-5-methyl-3′-(methylsulfonyl)biphenyl-4-yl]-4-hydroxy-2-oxo-1-oxa-8-azaspiro[4.5]dec-3-ene-8-carboxylate] is not above 100 nM; for `Cc1cc(-c2cccc(S(C)(=O)=O)c2)c(Cl)cc1C1=C(O)C2(CCC3CCCC3C2)OC1=O` (stereo not shown) [Example 84] it is not above 100 nM; for `Cc1cc(-c2cccc([N+](=O)[O-])c2)c(Cl)cc1C1=C(O)C2(CCC3CCCC3C2)OC1=O` (stereo not shown) [Example 88] it is not above 100 nM.

The compound `Cc1cc(-c2ccc([N+](=O)[O-])cc2)c(Cl)cc1C1=C(O)C2(CCC3CCCC3C2)OC1=O` (stereo not shown) [Example 89] yielded an IC50 not above 100 nM. The value for `Cc1cc(-c2cccc(NS(C)(=O)=O)c2)c(Cl)cc1C1=C(O)C2(CCN(C(=O)OCc3ccccc3)CC2)OC1=O` [Example 91] was not above 100 nM; that for `Cc1cc(-c2cc(NS(C)(=O)=O)ccc2F)c(Cl)cc1C1=C(O)C2(CCCCC2)OC1=O` [Example 92] was not above 100 nM.

As to `CCOc1cc(-c2cccc(S(C)(=O)=O)c2)c(C)cc1C1=C(O)C2(CCCCC2)OC1=O` [Example 93], the IC50 is not above 100 nM. The value for `Cc1cc(-c2cccc(NS(C)(=O)=O)c2)c(Cl)cc1C1=C(O)C2(CCCN(CC(=O)NCc3ccccc3)C2)OC1=O` (stereo not shown) [Example 97] was not above 100 nM; that for `Cc1cc(-c2cccc(S(C)(=O)=O)c2)c(Cl)cc1C1=C(O)C2(CCCN(Cc3nc4ccccc4[nH]3)C2)OC1=O` (stereo not shown) [Example 99] was not above 100 nM.

The compound `Cc1cc(-c2cccc(S(C)(=O)=O)c2)c(Cl)cc1C1=C(O)C2(CCCN(C(=O)CCOc3ccccc3)C2)OC1=O` (stereo not shown) [Example 100] returned an IC50 not above 100 nM. The figure for `Cc1cc(-c2cccc(S(C)(=O)=O)c2)c(Cl)cc1C1=C(O)C2(CCCN(CC(=O)NC(C)C)C2)OC1=O` (stereo not shown) [Example 101] is not above 100 nM.
